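A five-concentration, 48-hour dose response in 96-well plates underlies each endpoint, interpolated linearly between surrounding concentrations. Here, GI50 denotes the concentration required for 50% inhibition of growth.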 Active and inactive are the calls of the source. Cut-off read from the data, not from the text of the source: active = GI50 up to about 1.1 µM and inactive = higher.
Tests used:
Assay in all cases: growth of human tumour cells (NCI), 48 h
[1] = system: DMS-114
[2] = system: SNB-78
[3] = system: HOP-18
[4] = system: KM-20L2
[5] = system: XF498
[6] = system: LXFL 529
[7] = system: DLD-1
[8] = system: RXF 631
[9] = system: DMS-273

Structure (SMILES) | GI50 [1] | GI50 [2] | GI50 [3] | GI50 [4] | GI50 [5] | GI50 [6] | GI50 [7] | GI50 [8] | GI50 [9]
COC(=O)C1(O)c2ccccc2N=C2C1CCN2C (configuration not stated) | > 100 µM (inactive) | > 100 µM (inactive) | > 100 µM (inactive) | > 100 µM (inactive) | > 100 µM (inactive) | > 100 µM (inactive) | > 100 µM (inactive) | – | –
COc1cc2c(cc1OC)-c1c(cc(OC)c(OC)c1OC)C2=O | > 100 µM (inactive) | – | > 100 µM (inactive) | > 100 µM (inactive) | – | > 100 µM (inactive) | > 100 µM (inactive) | 92.9 µM (inactive) | –
O=C1C2Nc3ccccc3SC2C(=O)N1c1ccc(Br)cc1 (configuration not stated) | 13.5 µM (inactive) | 14.2 µM (inactive) | – | 33.2 µM (inactive) | 35.6 µM (inactive) | 20.7 µM (inactive) | 15.2 µM (inactive) | – | 21.6 µM (inactive)
Cc1ccc(Cl)c(NC(=O)C(=O)C(C(=O)c2ccncc2)C2OC(=O)c3ccccc32)c1 (configuration not stated) | > 100 µM (inactive) | > 100 µM (inactive) | > 100 µM (inactive) | – | > 100 µM (inactive) | > 100 µM (inactive) | > 100 µM (inactive) | > 100 µM (inactive) | –
CCO/S(=N/S(=O)(=O)c1ccccc1)c1ccccc1[N+](=O)[O-] (configuration not stated) | > 100 µM (inactive) | – | > 100 µM (inactive) | > 100 µM (inactive) | > 100 µM (inactive) | > 100 µM (inactive) | > 100 µM (inactive) | – | > 100 µM (inactive)
CC(C)(C)C(=O)C(c1ccc(-c2cscn2)cc1)c1ccc(-c2cscn2)cc1 | – | 18.5 µM (inactive) | 67.5 µM (inactive) | > 100 µM (inactive) | 27.3 µM (inactive) | 39.7 µM (inactive) | > 79.6 µM (inactive) | 22.7 µM (inactive) | 58.3 µM (inactive)
Cc1cc(C(=O)N2CCN(Cc3ccccc3)CC2)c(C)o1 | > 100 µM (inactive) | > 100 µM (inactive) | > 100 µM (inactive) | > 100 µM (inactive) | > 100 µM (inactive) | > 100 µM (inactive) | > 100 µM (inactive) | – | –
CC1(C)COC(C2(C)C(=O)C=C(c3ccccc3)c3ccccc32)=N1 (configuration not stated) | 38.7 µM (inactive) | – | > 100 µM (inactive) | 40.5 µM (inactive) | – | 41.3 µM (inactive) | 66.4 µM (inactive) | 33 µM (inactive) | –
O=C1CCNC/C1=C\c1ccccc1 | 24.1 µM (inactive) | 32.8 µM (inactive) | > 10 µM (inactive) | 14.7 µM (inactive) | 23.9 µM (inactive) | 16.1 µM (inactive) | 18.9 µM (inactive) | 26.5 µM (inactive) | 25.8 µM (inactive)
COc1cccc2c1C(CO)N1C(C#N)C3CC(C(=O)O)C(C1C2)N3C (configuration not stated) | 2.21 µM (inactive) | 2.81 µM (inactive) | – | 3.33 µM (inactive) | 1.61 µM (inactive) | 2.56 µM (inactive) | 2.79 µM (inactive) | – | 2.77 µM (inactive)
CC1=CP(=O)(c2ccccc2)C=C(C)C1=C(Cl)Cl (configuration not stated) | 10.8 µM (inactive) | 2.98 µM (inactive) | 18.7 µM (inactive) | 2.48 µM (inactive) | 17.4 µM (inactive) | 3.27 µM (inactive) | 8.17 µM (inactive) | – | 3.3 µM (inactive)
CCOC(=O)NC(=O)c1cn(CCCOC(=O)NCCCCCCNC(=O)OCCCn2c(=O)c(C(=O)NC(=O)OCC)cn(C)c2=O)c(=O)n(C)c1=O | > 100 µM (inactive) | – | 52.4 µM (inactive) | > 100 µM (inactive) | – | > 100 µM (inactive) | > 100 µM (inactive) | > 100 µM (inactive) | > 100 µM (inactive)
COc1ccc(O)c2c(=O)ccccc12 | > 100 µM (inactive) | > 100 µM (inactive) | – | – | 2.69 µM (inactive) | > 100 µM (inactive) | > 100 µM (inactive) | > 100 µM (inactive) | > 100 µM (inactive)
COc1ccc(/C=N/N=C(\N)NO)c(OC)c1 | 18.1 µM (inactive) | > 100 µM (inactive) | 14.6 µM (inactive) | – | – | 8.81 µM (inactive) | > 100 µM (inactive) | – | –
c1ccc(CN2COc3c(ccc4c5c(ccc34)CN(Cc3ccccc3)CO5)C2)cc1 | > 100 µM (inactive) | > 100 µM (inactive) | 52 µM (inactive) | 26.2 µM (inactive) | – | > 100 µM (inactive) | > 100 µM (inactive) | > 100 µM (inactive) | –
CC(C)OP(=O)(OC(C)C)/C(Cl)=N/Nc1ccc([N+](=O)[O-])cc1 | 81.8 µM (inactive) | 80.4 µM (inactive) | – | 50.8 µM (inactive) | > 100 µM (inactive) | 34.7 µM (inactive) | > 100 µM (inactive) | – | > 100 µM (inactive)
CCOC(=O)C(=O)Nc1nc2ccc(OC)cc2s1 | – | > 100 µM (inactive) | > 100 µM (inactive) | > 100 µM (inactive) | – | > 100 µM (inactive) | > 100 µM (inactive) | – | > 100 µM (inactive)
NC(=S)NNc1c([N+](=O)[O-])cnn(-c2ccccc2)c1=O | 17.3 µM (inactive) | 23.3 µM (inactive) | – | 15.9 µM (inactive) | 18.7 µM (inactive) | 9.02 µM (inactive) | 14.4 µM (inactive) | – | 18.3 µM (inactive)
CCOC(=O)NC(=O)c1cn(C2CCCCC2)c(=O)[nH]c1=O | – | 65.9 µM (inactive) | > 100 µM (inactive) | 36.3 µM (inactive) | > 100 µM (inactive) | 39.7 µM (inactive) | 61.8 µM (inactive) | > 100 µM (inactive) | 73.3 µM (inactive)
COc1cc2c[n+]3ccc4cc(OC)c(OC)cc4c3cc2cc1O | – | – | > 100 µM (inactive) | > 100 µM (inactive) | > 100 µM (inactive) | > 100 µM (inactive) | > 100 µM (inactive) | > 100 µM (inactive) | –
CC1CCCc2c1c1ccc3c(O)cccc3c1oc2=O (configuration not stated) | 19.6 µM (inactive) | 23.1 µM (inactive) | 26.6 µM (inactive) | > 100 µM (inactive) | 55 µM (inactive) | 48.8 µM (inactive) | > 100 µM (inactive) | – | 31.1 µM (inactive)
Cc1ccc(NC(=O)CC2Sc3ccccc3NC2=O)c(C)c1 (configuration not stated) | 17.9 µM (inactive) | 24.7 µM (inactive) | 11 µM (inactive) | 10.9 µM (inactive) | 18.2 µM (inactive) | 24.7 µM (inactive) | 8.15 µM (inactive) | 7.94 µM (inactive) | 12.2 µM (inactive)
Nc1ncnc2c1ncn2C1(CO)OC(CO)C(O)C1O (configuration not stated) | > 100 µM (inactive) | > 100 µM (inactive) | > 100 µM (inactive) | > 100 µM (inactive) | > 100 µM (inactive) | > 100 µM (inactive) | > 100 µM (inactive) | > 100 µM (inactive) | > 100 µM (inactive)
N#CCc1nc2c(s1)C(=O)c1ccccc1C2=O | 6.24 µM (inactive) | 20 µM (inactive) | 13.8 µM (inactive) | 38.4 µM (inactive) | – | 15 µM (inactive) | – | 18.2 µM (inactive) | 15.8 µM (inactive)
COc1cc(O)c2c(c1)O[C@@H]1OCC[C@H]21 | > 100 µM (inactive) | > 100 µM (inactive) | > 100 µM (inactive) | > 100 µM (inactive) | > 100 µM (inactive) | > 100 µM (inactive) | > 100 µM (inactive) | – | > 100 µM (inactive)
COc1cc([C@@H]2c3cc4c(cc3[C@@H](NC(=O)c3cccc(F)c3)C3COC(=O)[C@@H]32)OCO4)cc(OC)c1O (some centres not stated) | 0.607 µM (active) | 15.5 µM (inactive) | > 100 µM (inactive) | 1.68 µM (inactive) | – | 5.5 µM (inactive) | 2.32 µM (inactive) | – | 0.153 µM (active)
